# In patent US20240067693A1, “POLYPEPTIDES AND USES THEREOF” (MEDIMMUNE LIMITED, priority 2020, published 2024):
# Numbered stars: 1 amine (or outer) side, 2 acyl side, 3 side chain; on linkers, the order of the positions; unused ones are H or OH. Bridge positions count the residues as written; N and C are the ends. Square brackets hold non-standard residues; d marks the D form. Side chains are listed from the residue outwards. Peptide text beside a SMILES is read from it. * marks the point of attachment. C18 diacid = O=C(O)CCCCCCCCCCCCCCCCC(=O)*; γGlu = O=C(O)[C@H](CCC(=O)[*:2])N[*:1]; Dab = NCC[C@H](N)C(=O)O; Aib = CC(C)(N)C(=O)O
# Experiments:
# [1] = molecular target: T1, human amylin receptor (calcitonin receptor co-expressed with receptor activity modifying protein, RAMP3) (hAMYR3) (Homo sapiens, UniProt O60896+P30988); experiment: cAMP production in 1321N1 cells with stable recombinant expression of human amylin receptor (hAMYR3); assay type: cell-based; settings: for Ratio (selectivity hAMYR vs hCTR, ratio of EC50 values at the two receptors): EC50 hCTR / EC50 hAMYR3; for EC50: cAMP, 1321N1 cells, assay buffer with 0.1% BSA, read-out: EC50 (pM) hAMYR3
# T1 construct: expressed in transfected cells
# T1 sequence (P30988 25-474): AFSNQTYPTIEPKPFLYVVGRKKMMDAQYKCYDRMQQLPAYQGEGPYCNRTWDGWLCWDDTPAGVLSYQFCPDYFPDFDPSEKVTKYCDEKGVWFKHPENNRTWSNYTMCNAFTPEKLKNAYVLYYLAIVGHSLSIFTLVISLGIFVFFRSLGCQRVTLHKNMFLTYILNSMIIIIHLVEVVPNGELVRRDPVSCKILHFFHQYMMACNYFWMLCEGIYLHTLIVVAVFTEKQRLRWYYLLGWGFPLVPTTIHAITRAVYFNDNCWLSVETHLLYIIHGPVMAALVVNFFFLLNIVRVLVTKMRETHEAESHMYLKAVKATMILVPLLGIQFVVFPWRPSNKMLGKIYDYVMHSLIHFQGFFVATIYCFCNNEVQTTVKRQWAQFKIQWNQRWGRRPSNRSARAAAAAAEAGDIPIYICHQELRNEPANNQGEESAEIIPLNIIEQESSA
# T1 sequence (O60896 24-148 partner): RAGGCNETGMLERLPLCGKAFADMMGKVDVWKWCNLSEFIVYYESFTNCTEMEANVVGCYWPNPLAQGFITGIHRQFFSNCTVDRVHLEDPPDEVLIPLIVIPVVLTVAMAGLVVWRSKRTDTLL
# Method in brief: (§1)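 Thawed cells in HBSS/0.1% BSA/25 mM HEPES pH 7.4 with 0.5 mM IBMX were incubated with peptides 30 min at room temperature; cAMP read by HTRF. EC50 from 4-parameter fit of % activation relative to maximal amylin or calcitonin effect.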
# [2] = molecular target: T2, human calcitonin receptor (hCTR) (Homo sapiens, UniProt P30988); experiment: cAMP production in 1321N1 cells with stable recombinant expression of human calcitonin receptor (hCTR); assay type: cell-based; settings: cAMP, 1321N1 cells, assay buffer with 0.1% BSA; read-out: EC50 (pM) hCTR
# T2 construct: expressed in transfected cells
# T2 sequence (P30988 25-474): T1 sequence (P30988 25-474)
# Method in brief: as §1
Compound,"Ratio (selectivity hAMYR vs hCTR, ratio of EC50 values at the two receptors) [1]",EC50 [1] [pM],EC50 [2] [pM]
"CC[C@H](C)[C@H](NC(=O)[C@H](C)NC(=O)[C@@H]1CCCN1C(=O)[C@H](Cc1ccccc1)NC(=O)[C@H](CC(N)=O)NC(=O)C(C)(C)NC(=O)[C@H](CO)NC(=O)[C@H](CO)NC(=O)[C@H](Cc1c[nH]cn1)NC(=O)[C@@H](NC(=O)[C@H](CC(C)C)NC(=O)[C@H](Cc1ccccc1)NC(=O)[C@H](CC(N)=O)NC(=O)[C@H](C)NC(=O)[C@H](CC(C)C)NC(=O)[C@H](CCCNC(=N)N)NC(=O)[C@H](CCC(N)=O)NC(=O)[C@@H](NC(=O)[C@H](C)NC(=O)[C@@H]1CSSC[C@H](NC(=O)[C@@H](N)CCCCNC(=O)CC[C@H](NC(=O)CC[C@H](NC(=O)CCCCCCCCCCCCCCCCC(=O)O)C(=O)O)C(=O)O)C(=O)N[C@@H](CC(N)=O)C(=O)N[C@@H]([C@@H](C)O)C(=O)N[C@@H](C)C(=O)N[C@@H]([C@@H](C)O)C(=O)N1)[C@@H](C)O)C(C)C)C(=O)N[C@@H](CC(C)C)C(=O)N[C@@H](CO)C(=O)N1CCC[C@H]1C(=O)N[C@H](C(=O)N[C@@H](CCN)C(=O)N[C@H](C(=O)NCC(=O)N[C@@H](CO)C(=O)N[C@@H](CC(N)=O)C(=O)N[C@H](C(=O)N[C@@H](Cc1ccc(O)cc1)C(N)=O)[C@@H](C)O)C(C)C)[C@@H](C)O [Peptide 122, K(γE-γE-C18diacid)[CNTATC]ATQRLANFLVHSS(Aib)NFPAILSPT(Dab)VGSNTY-amide] (H-K([γGlu-γGlu-C18 diacid])CNTATCATQRLANFLVHSS[Aib]NFPAILSPT[Dab]VGSNTY-NH2; disulfide 2-7)",9,655,6180
"CC[C@H](C)[C@H](NC(=O)[C@@H]1CCCN1C(=O)CNC(=O)[C@H](Cc1ccccc1)NC(=O)[C@H](CC(N)=O)NC(=O)C(C)(C)NC(=O)[C@H](CO)NC(=O)[C@H](CO)NC(=O)[C@H](Cc1c[nH]cn1)NC(=O)[C@H](CO)NC(=O)[C@H](CC(C)C)NC(=O)[C@H](Cc1ccccc1)NC(=O)[C@H](CC(N)=O)NC(=O)[C@H](C)NC(=O)[C@H](CC(C)C)NC(=O)[C@H](CCCNC(=N)N)NC(=O)[C@H](CCC(N)=O)NC(=O)[C@@H](NC(=O)[C@H](C)NC(=O)[C@@H]1CSSC[C@H](NC(=O)[C@H](CCCCN)NC(=O)[C@@H](N)CCCCNC(=O)CC[C@H](NC(=O)CCCCCCCCCCCCCCCCC(=O)O)C(=O)O)C(=O)N[C@@H](CC(N)=O)C(=O)N[C@@H]([C@@H](C)O)C(=O)N[C@@H](C)C(=O)N[C@@H]([C@@H](C)O)C(=O)N1)[C@@H](C)O)C(=O)N[C@@H](CC(C)C)C(=O)N1CCC[C@H]1C(=O)N1CCC[C@H]1C(=O)N[C@H](C(=O)N[C@@H](CC(N)=O)C(=O)N[C@H](C(=O)NCC(=O)N[C@@H](CO)C(=O)N1CCC[C@H]1C(=O)N[C@H](C(=O)N[C@@H](Cc1ccc(O)cc1)C(N)=O)[C@@H](C)O)C(C)C)[C@@H](C)O [Peptide 55, K(γE-C18diacid)K[CNTATC]ATQRLANFLSHSS(Aib)NFGPILPPTNVGSPTY-amide] (H-K([γGlu-C18 diacid])KCNTATCATQRLANFLSHSS[Aib]NFGPILPPTNVGSPTY-NH2; disulfide 3-8)",3,678,1870
"CC(C)C[C@H](NC(=O)[C@H](CCCNC(=N)N)NC(=O)[C@H](CCC(N)=O)NC(=O)[C@@H](NC(=O)[C@H](C)NC(=O)[C@@H]1CSSC[C@H](NC(=O)[C@H](CCCCN)NC(=O)[C@@H](N)CCCCNC(=O)CC[C@H](NC(=O)CCCCCCCCCCCCCCCCC(=O)O)C(=O)O)C(=O)N[C@@H](CC(N)=O)C(=O)N[C@@H]([C@@H](C)O)C(=O)N[C@@H](C)C(=O)N[C@@H]([C@@H](C)O)C(=O)N1)[C@@H](C)O)C(=O)N[C@@H](C)C(=O)N[C@@H](CC(N)=O)C(=O)N[C@@H](Cc1ccccc1)C(=O)N[C@@H](CC(C)C)C(=O)NC(C)(C)C(=O)N[C@@H](Cc1c[nH]cn1)C(=O)N[C@@H](CO)C(=O)N[C@@H](CO)C(=O)N[C@@H](CC(N)=O)C(=O)N[C@@H](CC(N)=O)C(=O)N[C@@H](Cc1ccccc1)C(=O)NCC(=O)N1CCC[C@H]1C(=O)NC(C)(C)C(=O)N[C@@H](CC(C)C)C(=O)N1CCC[C@H]1C(=O)N1CCC[C@H]1C(=O)N[C@H](C(=O)N[C@@H](CC(N)=O)C(=O)N[C@H](C(=O)NCC(=O)N[C@@H](CO)C(=O)N[C@@H](CC(N)=O)C(=O)N[C@H](C(=O)N[C@@H](Cc1ccc(O)cc1)C(N)=O)[C@@H](C)O)C(C)C)[C@@H](C)O [Peptide 94, K(γE-C18diacid)K[CNTATC]ATQRLANFL(Aib)HSSNNFGP(Aib)LPPTNVGSNTY-amide] (H-K([γGlu-C18 diacid])KCNTATCATQRLANFL[Aib]HSSNNFGP[Aib]LPPTNVGSNTY-NH2; disulfide 3-8; N-terminus assumed)",6,322,1900

# Second part, the compound after the results:
"Ratio (selectivity hAMYR vs hCTR, ratio of EC50 values at the two receptors) [1]",EC50 [1] [pM],EC50 [2] [pM],Compound
5,403,1880,CC[C@H](C)[C@H](NC(=O)[C@@H]1CCCN1C(=O)CNC(=O)[C@H](Cc1ccccc1)NC(=O)[C@H](Cc1c[nH]cn1)NC(=O)[C@H](CC(N)=O)NC(=O)[C@H](CO)NC(=O)[C@H](CO)NC(=O)[C@H](Cc1c[nH]cn1)NC(=O)[C@@H](NC(=O)[C@H](CC(C)C)NC(=O)[C@H](Cc1ccccc1)NC(=O)[C@H](CC(N)=O)NC(=O)[C@H](C)NC(=O)[C@H](CC(C)C)NC(=O)[C@H](CCCNC(=N)N)NC(=O)[C@H](CCC(N)=O)NC(=O)[C@@H](NC(=O)[C@H](C)NC(=O)[C@@H]1CSSC[C@H](NC(=O)[C@H](CCCCN)NC(=O)[C@@H](N)CCCCNC(=O)CC[C@H](NC(=O)CCCCCCCCCCCCCCCCC(=O)O)C(=O)O)C(=O)N[C@@H](CC(N)=O)C(=O)N[C@@H]([C@@H](C)O)C(=O)N[C@@H](C)C(=O)N[C@@H]([C@@H](C)O)C(=O)N1)[C@@H](C)O)C(C)C)C(=O)N[C@@H](CC(C)C)C(=O)N1CCC[C@H]1C(=O)N1CCC[C@H]1C(=O)N[C@H](C(=O)N[C@@H](CC(N)=O)C(=O)N[C@H](C(=O)NCC(=O)N[C@@H](CO)C(=O)N[C@@H](CCC(=O)O)C(=O)N[C@H](C(=O)N[C@@H](Cc1ccc(O)cc1)C(N)=O)[C@@H](C)O)C(C)C)[C@@H](C)O [Peptide 111] (H-K([γGlu-C18 diacid])KCNTATCATQRLANFLVHSSNHFGPILPPTNVGSETY-NH2; disulfide 3-8; N-terminus assumed)
6.8,378,2580,CC[C@H](C)[C@H](NC(=O)[C@@H]1CCCN1C(=O)CNC(=O)[C@H](Cc1ccccc1)NC(=O)[C@H](CC(N)=O)NC(=O)[C@H](CO)NC(=O)[C@H](CO)NC(=O)[C@H](CO)NC(=O)[C@H](Cc1c[nH]cn1)NC(=O)C(C)(C)NC(=O)[C@H](CC(C)C)NC(=O)[C@H](Cc1ccccc1)NC(=O)[C@H](CC(N)=O)NC(=O)[C@H](C)NC(=O)[C@H](CC(C)C)NC(=O)[C@H](CCCNC(=N)N)NC(=O)[C@H](CCC(N)=O)NC(=O)[C@@H](NC(=O)[C@H](C)NC(=O)[C@@H]1CSSC[C@H](NC(=O)[C@H](CCCCN)NC(=O)[C@@H](N)CCCCNC(=O)CC[C@H](NC(=O)CCCCCCCCCCCCCCCCC(=O)O)C(=O)O)C(=O)N[C@@H](CC(N)=O)C(=O)N[C@@H]([C@@H](C)O)C(=O)N[C@@H](C)C(=O)N[C@@H]([C@@H](C)O)C(=O)N1)[C@@H](C)O)C(=O)N[C@@H](CC(C)C)C(=O)N1CCC[C@H]1C(=O)N1CCC[C@H]1C(=O)N[C@H](C(=O)N[C@@H](CC(N)=O)C(=O)N[C@H](C(=O)NCC(=O)N[C@@H](CO)C(=O)N[C@@H](CC(N)=O)C(=O)N[C@H](C(=O)N[C@@H](Cc1ccc(O)cc1)C(N)=O)[C@@H](C)O)C(C)C)[C@@H](C)O [Peptide 133] (H-K([γGlu-C18 diacid])KCNTATCATQRLANFL[Aib]HSSSNFGPILPPTNVGSNTY-NH2; disulfide 3-8; N-terminus assumed)
